This is an account of results in ChEMBL document CHEMBL5154904, “Discovery and Structural Basis of the Selectivity of Potent Cyclic Peptide Inhibitors of MAGE-A4” (J Med Chem, 2022).

Active and inactive are the calls of the source. No cut-off for these calls is given here. Positions of bridges follow the written chain, without caps; N, C: chain ends. Residues, ends and D or L forms follow the SMILES beside them. Bounds are passed on as bounds.

For assay [1], the target named is T1, Melanoma-associated antigen 4 (Homo sapiens, UniProt P43358).
T1 sequence (P43358 whole entry): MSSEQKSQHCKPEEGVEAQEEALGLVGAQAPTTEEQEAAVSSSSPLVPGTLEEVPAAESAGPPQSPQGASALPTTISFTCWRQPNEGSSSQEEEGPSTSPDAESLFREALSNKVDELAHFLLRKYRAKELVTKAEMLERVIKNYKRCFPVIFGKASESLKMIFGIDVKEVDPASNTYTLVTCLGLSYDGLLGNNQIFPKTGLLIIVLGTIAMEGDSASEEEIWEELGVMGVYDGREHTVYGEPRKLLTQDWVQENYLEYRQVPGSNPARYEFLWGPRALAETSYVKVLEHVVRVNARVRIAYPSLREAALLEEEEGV
In words: Binding affinity to MAGEA4 (unknown origin) expressed in Escherichia coli BL21-(DE3) by isothermal titration calorimetry.

For assay [2], the target named is T1, Melanoma-associated antigen 4. The assay is described as follows: Binding affinity to recombinant N-terminal His-tagged MAGEA4-MH domain (unknown origin) expressed in Escherichia coli BL21-(DE3) by isothermal titration calorimetry. In general terms: ITC needs no label: the signal is the heat of the interaction.
The nature of assay [3]: Inhibition of biotinylated Eu-W1024 streptavidin-labeled MAGEA4 (unknown origin) expressed in Escherichia coli BL21-(DE3)/GST-tagged RAD18 (unknown origin) (267 to 402 residues) interaction using Ulight-anti-GST antibody incubated for 30 to 60 mins by LANCE TR-FRET assay. Details: species or system Homo sapiens. On the technique in general: Time-resolved FRET reads energy transfer from a long-lived donor to a nearby acceptor.

For assay [4], the target named is T1, Melanoma-associated antigen 4. In words: Inhibition of Eu-W1024 streptavidin-labeled MAGEA4 (unknown origin) expressed in Escherichia coli BL21-(DE3) incubated for 30 to 60 mins by LANCE TR-FRET assay.
The species entered for assay [5] is Homo sapiens. The assay is described as follows: Binding affinity to recombinant N-terminal His-tagged MAGEA4-MH domain Y5A mutant (unknown origin) expressed in Escherichia coli BL21-(DE3) assessed as inhibition of protein stabilization at 10 uM by TR-FRET assay.
Assay [6] concerns the target T2, Melanoma-associated antigen 4 (Homo sapiens) (UniProt P43358).
T2 sequence (whole entry): T1 sequence (P43358 whole entry)
The assay is described as follows: Binding affinity to recombinant N-terminal His-tagged MAGEA4-MH domain (unknown origin) expressed in Escherichia coli BL21-(DE3) assessed as protection in trypsin-induced MAGEA4 protein degradation incubated for 1 hr by proteolysis based SDS-PAGE analysis.

Regarding `CC(C)C[C@@H]1NC(=O)[C@H]([C@H](C)O)NC(=O)[C@H](C(C)C)NC(=O)[C@H](Cc2ccc(O)cc2)NC(=O)CSC[C@@H](C(N)=O)NC(=O)[C@H]([C@@H](C)O)NC(=O)[C@H]2CCCN2C(=O)[C@H](Cc2ccccc2)NC(=O)[C@H](CCCNC(=N)N)NC(=O)[C@H](CC(N)=O)NC(=O)[C@H](Cc2ccccc2)NC(=O)[C@H]([C@@H](C)O)NC(=O)[C@H](CCCNC(=N)N)NC1=O`, the Kd (in general, a measure of binding affinity in units of concentration) was 55.5 nM in assay [1] and 47.4 nM in assay [2]. In addition, the figures for the IC50 in assay [3] and in assay [4] were 13.5 nM and 1.26 nM, respectively.
As to `CC(C)C[C@@H]1NC(=O)[C@H](CCCNC(=N)N)NC(=O)[C@H](CS)NC(=O)[C@H](Cc2ccc(O)cc2)NC(=O)CSC[C@@H](C(N)=O)NC(=O)[C@H](Cc2ccc(O)cc2)NC(=O)[C@H]([C@@H](C)O)NC(=O)[C@H](CCCNC(=N)N)NC(=O)[C@H]2CCCN2C(=O)[C@H](CC(C)C)NC(=O)[C@H](Cc2cnc[nH]2)NC(=O)[C@H](Cc2ccc(O)cc2)NC(=O)[C@H](CC(=O)O)NC(=O)[C@H](Cc2ccc(O)cc2)NC1=O`, the Kd in assay [1] amounted to 11.8 nM; in assay [2] it was 6.5 nM. In addition, the values for the IC50 in assay [3] and in assay [4] were less than 10 nM and less than 1 nM, respectively.
In the case of `CC[C@H](C)[C@@H]1NC(=O)[C@H](Cc2ccc(O)cc2)NC(=O)CSC[C@@H](C(N)=O)NC(=O)[C@H](CC(N)=O)NC(=O)[C@H](Cc2cnc[nH]2)NC(=O)[C@H](Cc2ccc(O)cc2)NC(=O)[C@H](CC(=O)O)NC(=O)[C@H](C)NC(=O)[C@H](CC(C)C)NC(=O)[C@H](CCCNC(=N)N)NC1=O` ({CH2CO}-YIRLADYHNC-NH2; thioether N-10), the outcome in assay [5] was Active.
Turning to Ac-YIRLYDYHNC-NH2, in assay [4], the 50% inhibitory concentration (IC50) (in general, the midpoint of a concentration-inhibition curve) is less than 10000 nM. Moreover, the outcome in assay [6] was Active.
